Calls of active or inactive are those of the source. No cut-off for these calls is given here.

Holding throughout (format): cell-based
The target of experiment [1] is T1, Toll-like receptor 4 (Mus musculus) (UniProt Q9QUK6).
T1 sequence (whole entry): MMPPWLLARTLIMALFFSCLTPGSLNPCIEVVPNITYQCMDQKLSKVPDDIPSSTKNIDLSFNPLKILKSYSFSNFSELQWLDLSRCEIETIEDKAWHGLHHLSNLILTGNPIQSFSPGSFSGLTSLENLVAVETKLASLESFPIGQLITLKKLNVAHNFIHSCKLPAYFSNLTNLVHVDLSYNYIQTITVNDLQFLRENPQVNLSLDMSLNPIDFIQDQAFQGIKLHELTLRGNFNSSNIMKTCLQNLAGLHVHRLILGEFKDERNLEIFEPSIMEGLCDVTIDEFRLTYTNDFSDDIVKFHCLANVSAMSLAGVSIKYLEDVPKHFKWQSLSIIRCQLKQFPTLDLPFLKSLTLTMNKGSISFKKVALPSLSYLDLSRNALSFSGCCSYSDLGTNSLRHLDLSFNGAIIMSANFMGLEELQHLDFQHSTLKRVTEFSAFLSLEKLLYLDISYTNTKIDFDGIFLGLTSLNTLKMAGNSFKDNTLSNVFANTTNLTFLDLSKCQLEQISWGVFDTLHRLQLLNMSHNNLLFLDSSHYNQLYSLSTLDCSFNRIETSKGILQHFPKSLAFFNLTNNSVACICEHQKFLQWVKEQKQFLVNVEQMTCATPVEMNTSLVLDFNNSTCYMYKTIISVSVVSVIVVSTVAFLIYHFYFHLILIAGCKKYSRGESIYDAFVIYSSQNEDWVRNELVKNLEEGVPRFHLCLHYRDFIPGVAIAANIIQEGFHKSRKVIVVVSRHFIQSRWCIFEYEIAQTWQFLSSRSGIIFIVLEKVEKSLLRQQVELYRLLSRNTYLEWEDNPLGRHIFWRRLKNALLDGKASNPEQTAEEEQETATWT
The experiment in a line: Inhibition of TLR4-mediated NF-kappaB signaling pathway in BALB/c mouse RAW264.7 cells assessed as suppression of LPS-stimulated PGE2 production at 0.5 to 5 ug/ml preincubated for 1 hr followed by LPS challenge measured after 6 hrs by immunoblot analysis in presence of adenosine. Background: In western blotting, separated proteins are transferred to a membrane and probed.

Experiment [2] deals with T1, Toll-like receptor 4 (Mus musculus). In words: Inhibition of TLR4-mediated NF-kappaB signaling pathway in BALB/c mouse RAW264.7 cells assessed as suppression of LPS-stimulated TNF-alpha production at 0.5 to 5 ug/ml preincubated for 1 hr followed by LPS challenge measured after 6 hrs by immunoblot analysis in presence of HEA.
The target is the same in experiment [3]. In words: Inhibition of TLR4-mediated NF-kappaB signaling pathway in BALB/c mouse RAW264.7 cells assessed as suppression of LPS-stimulated TNF-alpha production at 1 to 10 ug/ml preincubated for 1 hr followed by LPS challenge measured after 6 hrs by immunoblot analysis.
Experiment [4] shares this target. The experiment in a line: Inhibition of TLR4-mediated NF-kappaB signaling pathway in BALB/c mouse RAW264.7 cells assessed as suppression of LPS-stimulated PGE2 production at 0.5 to 5 ug/ml preincubated for 1 hr followed by LPS challenge measured after 6 hrs by immunoblot analysis in presence of HEA.
The target is the same in experiment [5]. The experiment in a line: Inhibition of TLR4-mediated NF-kappaB signaling pathway in BALB/c mouse RAW264.7 cells assessed as suppression of LPS-stimulated PGE2 production at 1 to 10 ug/ml preincubated for 1 hr followed by LPS challenge measured after 6 hrs by immunoblot analysis.
For experiment [6] the target is unchanged. In words: Inhibition of TLR4-mediated NF-kappaB signaling pathway in BALB/c mouse RAW264.7 cells assessed as suppression of LPS-stimulated TNF-alpha production at 0.5 to 5 ug/ml preincubated for 1 hr followed by LPS challenge measured after 6 hrs by immunoblot analysis in presence of adenosine.
Experiment [7] shares this target. In words: Inhibition of TLR4-mediated NF-kappaB signaling pathway in BALB/c mouse RAW264.7 cells assessed as suppression of LPS-stimulated PGE2 production at 2.5 to 10 ug/ml preincubated for 1 hr followed by LPS challenge measured after 6 hrs by immunoblot analysis.
The target is the same in experiment [8]. In words: Inhibition of TLR4-mediated NF-kappaB signaling pathway in BALB/c mouse RAW264.7 cells assessed as suppression of LPS-stimulated TNF-alpha production at 0.5 to 5 ug/ml preincubated for 1 hr followed by LPS challenge measured after 6 hrs by immunoblot analysis in presence of cordycepin.
The target is the same in experiment [9]. In words: Inhibition of TLR4-mediated NF-kappaB signaling pathway in BALB/c mouse RAW264.7 cells assessed as suppression of LPS-stimulated PGE2 production at 0.5 to 5 ug/ml preincubated for 1 hr followed by LPS challenge measured after 6 hrs by immunoblot analysis in presence of cordycepin.
For experiment [10] the target is unchanged. The experiment in a line: Inhibition of TLR4-mediated NF-kappaB signaling pathway in BALB/c mouse RAW264.7 cells assessed as suppression of LPS-stimulated TNF-alpha production at 2.5 to 10 ug/ml preincubated for 1 hr followed by LPS challenge measured after 6 hrs by immunoblot analysis.

`Nc1ncnc2c1ncn2[C@@H]1O[C@H](CO)C[C@H]1O`: the inhibition entry in experiment [1], in [2], in [4] and in [6] was “inactive” in each case. Also, the inhibition entry in [3] and in experiment [5] was “Active” throughout.
In the case of `Nc1ncnc2c1ncn2[C@@H]1O[C@H](CO)[C@@H](O)[C@H]1O`, the inhibition result in [2], in [8], in experiment [9] and in experiment [4] was “inactive” each time. Moreover, the inhibition result in [7] and in [10] was “Active” in each case.

Values taken from ChEMBL document CHEMBL3632615, “N(6)-(2-Hydroxyethyl)adenosine in the Medicinal Mushroom Cordyceps cicadae Attenuates Lipopolysaccharide-Stimulated Pro-inflammatory Responses by Suppressing TLR4-Mediated NF-κB Signaling Pathways” (J Nat Prod, 2015).
